The record followed here is ChEMBL document CHEMBL1146094, “Screening for cardiovascular safety: a structure-activity approach for guiding lead selection of melanin concentrating hormone receptor 1 antagonists” (J Med Chem, 2006).

Series [1] concerns IMR-32. Kind of series: Inhibition of MCH-mediated calcium release in whole IMR32 cells by FLIPR assay. The note with it: Homo sapiens. In kind it is functional, cell-based.
The target of series [2] is Melanin-concentrating hormone receptor 1 (Homo sapiens, UniProt Q99705). Briefly: Displacement of [125I]MCH from MCHr1 expressed in IMR32 (I3.4.2) cells. Format: cell-based.
In series [3] the test system is Rattus norvegicus. Briefly: End-of-study drug concentration in inactin-anesthetized Sprague-Dawley rat brain. In kind it is functional.
Series [4] deals with Rattus norvegicus. Kind of series: End-of-study drug concentration in inactin-anesthetized Sprague-Dawley rat plasma. Format: functional.
In series [5] the test system is IMR-32. Kind of series: Inhibition of MCH-mediated calcium release in whole IMR32 cells at 10 uM by FLIPR assay. Format: functional. The note with it: Homo sapiens.
Series [6] in a line: AUC in DIO mice plasma at 10 mg/kg, po. The note with it: mouse. In kind it is ADME, organism-based. Also noted: dose 10 mg/kg, route oral.
The subject of a further series is Mus musculus. Kind of series: AUC in DIO mice brain at 10 mg/kg, po. In kind it is ADME, organism-based. Set-up: dose 10 mg/kg, route oral. As to conditions: in vivo.

Chain of Melanin-concentrating hormone receptor 1 (Q99705 whole entry): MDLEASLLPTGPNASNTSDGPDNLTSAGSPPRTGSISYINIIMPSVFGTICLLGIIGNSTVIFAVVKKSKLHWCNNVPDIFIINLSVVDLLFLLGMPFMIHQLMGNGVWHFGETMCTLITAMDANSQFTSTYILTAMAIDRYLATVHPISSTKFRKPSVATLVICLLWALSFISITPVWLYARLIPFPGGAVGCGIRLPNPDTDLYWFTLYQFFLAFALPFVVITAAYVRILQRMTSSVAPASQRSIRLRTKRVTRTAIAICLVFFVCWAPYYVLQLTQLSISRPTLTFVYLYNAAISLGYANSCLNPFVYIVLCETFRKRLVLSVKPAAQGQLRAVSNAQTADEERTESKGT

As for `COc1ccc2nccc(NC3CCN(Cc4ccc5c(c4)OCO5)CC3)c2c1`, the results for the IC50 (in the series on IMR-32 [1]; in series [2]) were 74 nM and 10 nM, respectively.

As to `Clc1ccc2[nH]nc(NC3CCN(Cc4ccc5c(c4)OCO5)CC3)c2c1`, the values for the Activity in the series with Rattus norvegicus [3] and with Rattus norvegicus [4] were 30 µg/g and 22 µM, respectively. Further, the half-maximal inhibitory concentration (IC50) was 376 nM in the series on IMR-32 [1] and 16 nM in series [2].

Turning to `O=C(Cc1ccc(OCc2ccccc2)cc1)Nc1ccc2cnn(CCN3CCCC3)c2c1`, the Activity with Rattus norvegicus [3] was 10 µg/g; in the series on Rattus norvegicus [4], 23 µM. Further, the IC50 with IMR-32 [1] was 11 nM.

`O=C(Cc1ccc(Oc2ccccc2)cc1)Nc1ccc2c(cnn2CCN2CCCC2)c1`: the half-inhibitory concentration (IC50) is 309 nM in the series on IMR-32 [1] and 78 nM in series [2]. The molecule further displayed an Activity in the series with Rattus norvegicus [4] of 2 µM.

With `COc1ccc(CC(=O)Nc2ccc3cnn(CCN4CCCC4)c3c2)cc1`, the inhibition at 10 µM with IMR-32 [5] turned out to be 14%. Also, the Activity with Rattus norvegicus [3] was 6 µg/g; in the series with Rattus norvegicus [4], 39 µM. Besides, the IC50 in the series with IMR-32 [1] was greater than 10000 nM; in series [2], 3630 nM.

As to `O=C(Cc1ccc(OCc2ccccc2)cc1)Nc1ccc2c(cnn2CCN2CCCC2)c1`, the inhibition at 10 µM in the series on IMR-32 [5] was found to be 14%. Moreover, the Activity in the series with Rattus norvegicus [3] was found to be 46 µg/g; with Rattus norvegicus [4], 53 µM.

On to `CC(C)OCCNc1ncc(Cl)cc1C(=O)NC1CCCN(Cc2ccc3c(c2)OCO3)C1` (configuration not stated), for which the inhibition at 10 µM with IMR-32 [5] turned out to be 30%. The Activity in the series on Rattus norvegicus [3] came to 138 µg/g; in the series with Rattus norvegicus [4] it was 61 µM.

`O=C(Nc1ccc(Oc2ccccc2)cc1)Nc1ccc2c(cnn2CCN2CCCCCC2)c1`: the values for the 50% inhibitory concentration (IC50) (in the series on IMR-32 [1]; in series [2]) were 103 nM and 4 nM, respectively.

Take `O=C(Nc1ccc(Oc2ccccc2)cc1)Nc1ccc2nn(CCN3CCCC3)cc2c1`: the values for the Activity in the series on Rattus norvegicus [3] and in the series on Rattus norvegicus [4] were 6 µg/g and 558 µM, respectively. For the same molecule, the IC50 with IMR-32 [1] stood at 314 nM; in series [2], 46 nM.

As for `O=C(Nc1ccc(Oc2ccccc2)cc1)Nc1ccc2c(cnn2CCN2CCCCC2)c1`, the Activity in the series on Rattus norvegicus [3] amounted to 13 µg/g; in the series with Rattus norvegicus [4], 77 µM. Besides, the half-maximal inhibitory concentration (IC50) is 136 nM with IMR-32 [1] and 5 nM in series [2].

For the molecule `COc1ccc2c(=O)cc(C(=O)NC3CCN(Cc4ccc5c(c4)OCO5)CC3)oc2c1`, the AUC in series [6] came out at 18700 ng·h/mL; in the series on Mus musculus, 4.4 µg·h/g. Besides, the Activity stood at 158 µg/g in the series on Rattus norvegicus [3] and 66 µM in the series on Rattus norvegicus [4]. Further, the 50% inhibitory concentration (IC50) was 73 nM with IMR-32 [1] and 6 nM in series [2].

As to `COc1ccc2oc(O)c/c(=N\C3CCN(Cc4ccc5c(c4)OCO5)CC3)c2c1`, the Activity in the series with Rattus norvegicus [3] is 71 µg/g; in the series with Rattus norvegicus [4] it was 272 µM. Moreover, the concentration for half-maximal inhibition (IC50) with IMR-32 [1] was determined as 11 nM; in series [2] it was 2 nM.

For `O=C(Nc1ccc(Oc2ccccc2)cc1)Nc1ccc2nn(CCN3CC[C@H](O)C3)cc2c1`, the AUC in series [6] was 1020 ng·h/mL; with Mus musculus it was 0 µg·h/g. Also, the figures for the Activity in the series on Rattus norvegicus [3] and in the series on Rattus norvegicus [4] were 3 µg/g and 201 µM, respectively. For the same molecule, the 50% inhibitory concentration (IC50) in the series with IMR-32 [1] came out at 214 nM; in series [2], 57 nM.

As for `O=C(NC1CCN(Cc2ccc3c(c2)OCO3)CC1)c1cc(Cl)ccc1NCc1nccs1`, the IC50 in the series on IMR-32 [1] worked out at 53 nM. Besides, the Activity in the series with Rattus norvegicus [4] came to 91 µM.

`O=C(NC1CCN(Cc2ccc3c(c2)OCO3)CC1)c1cc(=O)c2cc(Cl)c(Cl)cc2o1`: the Activity in the series on Rattus norvegicus [3] was 63 µg/g; in the series on Rattus norvegicus [4], 42 µM. Moreover, the half-maximal inhibitory concentration (IC50) is 83 nM in the series with IMR-32 [1] and 3 nM in series [2].

Turning to `CC(C)OCCNc1ncc(Cl)cc1C(=O)NC1CCN(Cc2ccc3c(c2)OCO3)CC1`, the figures for the Activity in the series on Rattus norvegicus [3] and in the series on Rattus norvegicus [4] were 88 µg/g and 44 µM, respectively. The concentration for half-maximal inhibition (IC50) in the series on IMR-32 [1] was found to be 25 nM.

As for `O=C(Nc1ccc(Oc2ccccc2)cc1)Nc1ccc2c(cnn2CCN2CCCC2)c1`, the Activity in the series on Rattus norvegicus [3] was found to be 10 µg/g; with Rattus norvegicus [4] it was 88 µM.

As for `O=C(Cc1ccc(OCc2ccccc2)cc1)Nc1cccc2c1cnn2CCN1CCCC1`, the IC50 in the series on IMR-32 [1] came to 71 nM. Besides, the Activity with Rattus norvegicus [4] worked out at 4 µM.
